Data published in US20250019657A1, “Generation of Adipocytes from Bovine Embryonic Stem Cell Lines” (Wisconsin Alumni Research Foundation, priority 2023, published 2025).

Columns and labels:
bESCs [1] = test: bESC growth in Medium 1 with alternative Wnt inhibitors (Medium 1a/1b) on vitronectin, feeder-free; format: cell-based, bovine
Method: 1) Wnt-inhibitors (Medium la and Medium 1b): In prior studies, mTeSR Plus medium supplemented with 20 ng/ml human FGF2 and 2.5 μM IWR1 was used for bESC cultures (Saito et al. 1992; Stice et al. 1996). […] Nat Chem Biol 11, 973-980 (2015); and Mallinger et al., Discovery of potent, orally bioavailable, small-molecule inhibitors of WNT signaling from a cell-based pathway screen.
bESC growth in Medium 1 was tested with concentrations of 1 nM, 5 nM, or 10 nM iCRT3 (Medium 1a).
In another set of experiments, bESC growth in Medium 1 was tested with concentrations of 1 nM, 5 nM, 75 nM, or 150 nM CCT251545 (Medium 1b).
In Method 1, bESC colonies growing on Vitronectin were passaged by using TrypLe. Following medium aspiration 0.5-0.8 mL of TrypLE was added to each well of 6 well plate. Cells incubated for 3.5 min at 37.2° C. Then TrypLE has been carefully removed by aspiration and 1-1.2 mL of cold (+1-+4° C.) TeSRr medium was added, cells were suspended by pipette filtered via strainer (70 mkM), counted and an aliquot of 70,000 to 100,000 cell/well for 6 wells plate was taken and cells centrifuged at 100 g for 5 minutes. The cell pellet was resuspended in 9 mL growth medium and seeded on coated by vitronectin 6-well plate.

bESCs [2] = test: bESC growth in mTeSR medium with DAPT and IWR-1 (Medium 3 / Method 3); format: cell-based, bovine
Method: To test whether DAPT can be used for bESC cultures, the growth of bESC was tested in mTeSR medium with different concentrations of DAPT and IWR-1. […] Addition of IWR-1 to DAPT had no effect on bESCs. (FIG. 3, Table 6; bESC Medium 3/Method 3). mTeSR with 10 μM DAPT alone supported bESC cultures for more than 7 passages.
In Method 3, bESC were cultured in bESC medium 3 composed of TeSR Plus (WiCell) supplemented with […] of gamma γ-secretase inhibitor DAPT on collagen or a vitronectin-coated 6-well plate and were passage using PBS-EDTA. Following aspiration of bESC growth media, 0.7-1.2 mL of PBS-EDTA solution was added to each well of 6 well plate. After incubation 5 to 6 min at +37° C., PBS-EDTA was carefully removed by aspiration and 1-1.2 mL of cold (+1-+4° C.) TeSR medium was added, cells were suspended by pipette filtered via strainer (70 mkM), counted and an aliquot of 100,000 to 150,000 cell/well for 6 wells plate was taken and cells were centrifuged at 100 g for 5 minutes. Cell pellets were resuspended in 9 mL growth medium and plated on a collagen or vitronectin coated 6-well plate. Cells grew for 5-7 days until they formed large colonies. PBS-EDTA solution was prepared as described above.

bESCs [3] = test: Matrix coating supporting expansion of bESCs in feeder-free conditions; format: cell-based, bovine; conditions: for bESC growth on pre-coated plate (FIG. 2): Method 1 bESCs, medium with 2.5 μM IWR-1 (bESC medium 1)
From the text: After co-culture with MEFs, bESCs were collected using TrypLE treatment and cultured in 6-well plastic plates in feeder-free conditions for expansion. […] However, collagen pre-coated plates can be used to support bESC growth in bESC medium 2.
To establish feeder-free conditions for bESCs, bESCs were collected from coculture with MEFs using TrypLE treatment and transferred into 6-well plastic plates precoated Vitronectin XF, collagen, or Matrigel®.
Vitronectin Coating Preparation: A frozen vial of Vitronectin XF (2 mL) from Stem Cell Technology (Cat #07180) was thawed and mixed with 50 mL of DPBS and distributed into 6 of 6-well plates (˜1.4 mL/well) sealed with Parafilm and kept wrapped in foil at +4° C. for not more than 2 weeks. Before use, the plate was kept at +37° C. for at least 1 hr. Immediately after aspiration excess of liquid, bESCs in culture medium were added.
Collagen Coating Preparation: Collagen (Sigma, Cat #5162-1G) was dissolved in distilled water and sterilized by filtration using 0.22 um filter. Collagen solution aliquoted into 70 μL PCR tubes and kept at −80° C. before use. For coating wells, the content of tube was transferred into 50 mL DPBS, carefully mixed, and distributed into 6 of 6 wells plate, approximately 1.3-1.4 mL/well. Plates sealed with Parafilm and kept at RT not more than 2 wecks.
Matrigel® Coating Preparation: Frozen stock (˜0.5 mL) of Matrigel® needs was thaw on ice and diluted in 50 mL of cold DPBS (+4° C.). Approximately 1.2-1.3 mL (9 μg/cm^2) of diluted Matrigel® solution was added to each well. After 1 hour incubation at +37° C. excess Matrigel® was removed and wells washed with warm DPBS.

[4] = tested on: bovine embryo derived blastocysts; test: Generation of bESC lines from blastocysts on different coatings; format: cell-based; conditions: Method 1
Method: bESCs were generated from IVM/IVF bovine embryo derived blastocysts on 6th to 7th days post-fertilization. Briefly, bovine embryos were obtained from an outside source and cultured in TeSR Plus medium supplemented with 15% fetal bovine serum from 24 to 72 hours to get an expanded blastocyst stage. After that zona pellucida was removed by treating embryos with pronase. Embryos with stripped zona pellucida were plated on irradiated MEFs (obtained from WICell) in a 4-well IVF plate and cultured according to Method 1 or Method 2. Following expansion of inner cell mass after culture for 2-3 weeks on MEFs, cells were disaggregated by TrypLE, and bESC were generated from individual blastocysts by two Methods (Method 1 or Method 2) to maximize efficiency.
To determine if feeder-free conditions were suitable for maximizing generation of bESCs from inner cell mass, individual blastocysts were placed into culture plates according to Method 1 or Method 2 with coating conditions modified as shown in Table 1. Coating conditions using MEF feeder cells or vitronectin (feeder-free) were tested. In the first set, 11 bovine embryos were used to establish 4 bESC lines, 3 of which were differentiated and tossed after passage 5-7. Only one cell line remained undifferentiated and maintained expression of bESC pluripotency factors Oct4 and Sox2. […]

[5] = 1 nM inhibitor in Medium 1, vitronectin
[6] = feeder-free, bESC medium 1 or 2

Molecule: Cn1cc(-c2ccc(-c3cncc(Cl)c3N3CCC4(CCNC4=O)CC3)cc2)cn1 [CCT251545]
- bESC growth on vitronectin (bESCs [1]; 1 nM inhibitor in Medium 1): did not support bESC growth
- passages after which cells died (bESCs [1]; [5]): 2-3 passages
- bESC growth on vitronectin (bESCs [1]; 5 nM inhibitor in Medium 1): did not support bESC growth
- bESC growth on vitronectin (bESCs [1]; 75 nM inhibitor in Medium 1): did not support bESC growth
- bESC growth with typical morphology and expression of Sox2 and Oct4 (bESCs [1]; 150 nM inhibitor in Medium 1): supported bESC growth
- passages of supported bESC growth (bESCs [1]; 150 nM inhibitor in Medium 1): more than 7 passages

Molecule: C[C@H](NC(=O)Cc1cc(F)cc(F)c1)C(=O)NC(C(=O)OC(C)(C)C)c1ccccc1 (some centres unmarked) [DAPT]
- growth of bESCs (bESCs [2]; DAPT alone at 5-10 μM in mTeSR medium): sufficient to support growth of bESCs
- passages of supported bESC cultures (bESCs [2]; mTeSR with 10 μM DAPT alone): more than 7 passages

Molecule: O=C(Nc1cccc2cccnc12)c1ccc(N2C(=O)[C@@H]3[C@H](C2=O)[C@@H]2C=C[C@H]3C2)cc1 [IWR-1]
- effect on bESCs of addition to DAPT (bESCs [2]; IWR-1 added to DAPT in mTeSR medium): no effect

Molecule: CCc1ccc(-c2nc(CSCC(=O)NCCc3ccccc3)c(C)o2)cc1 [iCRT3]
- bESC growth on vitronectin (bESCs [1]; 1 nM inhibitor in Medium 1): did not support bESC growth
- passages after which cells died (bESCs [1]; [5]): 1-2 passages
- bESC growth on vitronectin (bESCs [1]; 5 nM inhibitor in Medium 1): did not support bESC growth
- passages after which cells died (bESCs [1]; 5 nM inhibitor in Medium 1, vitronectin): 2-4 passages
- bESC growth with typical morphology and expression of Sox2 and Oct4 (bESCs [1]; 10 nM inhibitor in Medium 1): supported bESC growth
- passages of supported bESC growth (bESCs [1]; 10 nM inhibitor in Medium 1): more than 10 passages

Molecule: collagen
- bESC growth on pre-coated plate (FIG. 2) (bESCs [3]): supports bESC cultures
- bESC adherence to matrix (bESCs [3]; bESC medium 1): very lightly and weak
- bESC colony formation and growth on matrix (bESCs [3]; bESC medium 2): able to form colonies and grow
- bESC morphology on matrix (bESCs [3]; [6]): maintained a typical bESC morphology

Molecule: gelatin
- bESC growth on pre-coated plate (FIG. 2) (bESCs [3]): do not support the growth of bESCs
- bESC attachment to pre-coated plates (bESCs [3]; [6]): attached
- bESC growth on pre-coated plates (bESCs [3]; [6]): did not grow

B1: vitronectin + Cover Glass on the top: vitronectin coating with cover glass on top (protein, UniProt P04004 20-478, looked up)
Vitronectin: DQESCKGRCTEGFNVDKKCQCDELCSYYQSCCTDYTAECKPQVTRGDVFTMPEDEYTVYDDGEEKNNATVHEQVGGPSLTSDLQAQSKGNPEQTPVLKPEEEAPAPEVGASKPEGIDSRPETLHPGRPQPPAEEELCSGKPFDAFTDLKNGSLFAFRGQYCYELDEKAVRPGYPKLIRDVWGIEGPIDAAFTRINCQGKTYLFKGSQYWRFEDGVLDPDYPRNISDGFDGIPDNVDAALALPAHSYSGRERVYFFKGKQYWEYQFQHQPSQEECEGSSLSAVFEHFAMMQRDSWEDIFELLFWGRTSAGTRQPQFISRDWHGVPGQVDAAMAGRIYISGMAPRPSLAKKQRFRHRNRKGYRSQRGHSRGRNQNSRRPSRATWLSLFSSEESNLGANNYDDYRMDWLVPATCEPIQSVFFFSGDKYYRVNLRTRRVDTVDPPYPRSIAQYWLGCPAPGHL
- Number of bESC lines generated [4]: 0
